The subject of experiment [1] is NCI-H292 lung cancer cells. Description: FDA drug screening, complete media vs cholesterol-free media without statin (TABLE 1). Type of experiment: cell-based, human.
The subject of experiment [2] is NCI-H292 lung cancer cells. Description: FDA drug screening, complete media vs cholesterol-free media with simvastatin (TABLE 2). Type of experiment: cell-based, human.
Setting [3] is: Complete minus Cholesterol-free, >0 enhanced anti-cancer activity, about 0 neutral, <0 antagonist.
[4] abbreviates: NCI-H292 cells, cholesterol-free media without statin.
Setting [5] is: NCI-H292 cells, drug in cholesterol-free media with simvastatin 0.04 μM.
[6] abbreviates: NCI-H292 cells, drug in complete media.
[7] abbreviates: complete media vs cholesterol-free media + simvastatin (0.04 μM), >0 enhanced anti-cancer activity, about 0 neutral, <0 antagonist.
Where [8] appears, read: NCI-H292 cells, cholesterol-free media with simvastatin 0.04 μM, FDA drug library screen (TABLE 2).
The mark [9] stands for this setting: NCI-H292 cells, complete media, FDA drug library screen (TABLE 2).
The mark [10] stands for this setting: complete media minus cholesterol-free media + simvastatin (0.04 μM), >0 enhanced anti-cancer activity, about 0 neutral, <0 antagonist.
Setting [11] is: Complete minus Cholesterol-free, greater than 0 enhanced anti-cancer activity, about 0 neutral, below 0 antagonist.
Setting [12] is: NCI-H292 cells, FDA drug library screen, cholesterol-free media without statin.
[13] abbreviates: NCI-H292 cells, FDA drug library screen, complete media.
Where [14] appears, read: NCI-H292 cells, FDA library drug in cholesterol-free media with simvastatin 0.04 μM.
The mark [15] stands for this setting: NCI-H292 cells, FDA library drug in complete media.
Setting [16] is: NCI-H292 cells, cholesterol-free media with simvastatin 0.04 μM, cell growth value in FDA drug screen.
Where [17] appears, read: complete media minus cholesterol-free media + simvastatin, >0 enhanced anti-cancer activity, about 0 neutral, <0 antagonist.
The mark [18] stands for this setting: Complete minus Cholesterol-free, […].
[19] abbreviates: complete media minus cholesterol-free media + simvastatin, […].
Where [20] appears, read: NCI-H292 cells, complete media, cell growth value in FDA drug screen.
[21] abbreviates: Complete minus Cholesterol-free, greater than 0 enhanced anti-cancer activity, about 0 neutral, below 0 antagonists.
[22] abbreviates: NCI-H292 cells in cholesterol-free media without statin.
The mark [23] stands for this setting: NCI-H292 cells in complete media.
[24] abbreviates: NCI-H292 cells, FDA drug library screen, cholesterol-free media with simvastatin 0.04 μM.
Where [25] appears, read: complete vs cholesterol-free media, greater than 0 enhanced anti-cancer activity, about 0 neutral, below 0 antagonists.
The mark [26] stands for this setting: complete vs cholesterol-free media, […].
The mark [27] stands for this setting: complete media vs cholesterol-free media + simvastatin (0.04 μM), […].

These results are taken from US20250144067A1, “PERSONALIZED STARVATION THERAPY FOR CANCER” (Faeth Therapeutics, Inc., priority 2021, published 2025).

Like-named read-outs stand apart in the source and are kept apart here.

With `N#Cc1cc(NC(=O)C(=O)O)c(Cl)c(NC(=O)C(=O)O)c1` [Lodoxamide], the Difference in experiment [1] (setting [3]) and in experiment [2] (setting [7]) was −0.26 each time. Besides, in experiment [1] (setting [4]), the Cholesterol-free is reported as 1.144. Also, the Complete in experiment [1] (NCI-H292 cells, complete media) is recorded as 0.8858. Further, in experiment [2] (setting [5]), the “Cholesterol-free media + simvastatin (0.04 μM)” value is 1.021. For the same molecule, the “Complete Media” value in experiment [2] (setting [6]) was determined as 0.7589.
Regarding `Nc1nc(O)c2ncn(COC(CO)CO)c2n1` [Ganciclovir (sodium)], the Difference was −0.19 in experiment [1] (setting [3]) and −0.03 in experiment [2] (setting [10]). The Cholesterol-free in experiment [1] (setting [4]) amounted to 0.9099. In experiment [1] (NCI-H292 cells, complete media), this molecule had a Complete of 0.7218. In addition, the “Cholesterol-free media + simvastatin (0.04 μM)” value in experiment [2] (setting [8]) is 1.423. In experiment [2] (setting [9]), the “Complete Media” value stood at 1.395.
For the molecule `CCCCC[C@](C)(O)/C=C/[C@@H]1[C@@H](C/C=C\CCCC(=O)O)[C@@H](O)C[C@H]1O.NC(CO)(CO)CO` [Carboprost (tromethamine)], the Difference in experiment [1] (setting [11]) is given as −0.14; in experiment [2] (setting [7]), −0.29. For the same molecule, the Cholesterol-free in experiment [1] (setting [12]) was found to be 1.222. The Complete in experiment [1] (setting [13]) came out at 1.08. Moreover, the “Cholesterol-free media + simvastatin (0.04 μM)” value in experiment [2] (setting [14]) is listed as 1.591. The “Complete Media” value in experiment [2] (setting [15]) is given as 1.306.
`Cc1nc2ccc(CN(C)c3ccc(C(=O)N[C@@H](CCC(=O)O)C(=O)O)s3)cc2c(=O)[nH]1` [Raltitrexed]: the Difference in experiment [1] (setting [3]) is reported as −0.24; in experiment [2] (setting [10]), −0.02. Besides, in experiment [1] (setting [4]), the Cholesterol-free is given as 0.3503. The molecule further registered a Complete in experiment [1] (NCI-H292 cells, complete media) of 0.1117. For the same molecule, in experiment [2] (setting [8]), the “Cholesterol-free media + simvastatin (0.04 μM)” value is recorded as 0.1121. Further, the “Complete Media” value in experiment [2] (setting [9]) was determined as 0.0907.
In the case of `CC(S)C(=O)NCC(=O)O` (stereo not shown) [Tiopronin], the Difference in experiment [1] (setting [3]) is reported as −0.20; in experiment [2] (setting [17]), 0.12. This molecule yielded a Cholesterol-free in experiment [1] (setting [4]) of 0.9241. The molecule also registered a Complete in experiment [1] (NCI-H292 cells, complete media) of 0.7208. Further, the “Cholesterol-free media + simvastatin (0.04 μM)” value in experiment [2] (setting [16]) was determined as 1.026.
As for `O=C([O-])CCSC[C@H]1O[C@@H]2O[C@H]3[C@H](O)[C@@H](O)[C@@H](O[C@H]4[C@H](O)[C@@H](O)[C@@H](O[C@H]5[C@H](O)[C@@H](O)[C@@H](O[C@H]6[C@H](O)[C@@H](O)[C@@H](O[C@H]7[C@H](O)[C@@H](O)[C@@H](O[C@H]8[C@H](O)[C@@H](O)[C@@H](O[C@H]9[C@H](O)C(O)[C@@H](O[C@H]1[C@H](O)[C@H]2O)O[C@@H]9CSCCC(=O)[O-])O[C@@H]8CSCCC(=O)[O-])O[C@@H]7CSCCC(=O)[O-])O[C@@H]6CSCCC(=O)[O-])O[C@@H]5CSCCC(=O)[O-])O[C@@H]4CSCCC(=O)[O-])O[C@@H]3CSCCC(=O)[O-].[Na+].[Na+].[Na+].[Na+].[Na+].[Na+].[Na+].[Na+]` (stereo partly shown) [Sugammadex (sodium)], the Difference in experiment [1] (setting [18]) is listed as −0.11; in experiment [2] (setting [19]) it was 0.09. This molecule returned a Cholesterol-free in experiment [1] (setting [12]) of 1.596. Besides, the Complete in experiment [1] (setting [13]) stood at 1.487. In addition, in experiment [2] (NCI-H292 cells, cholesterol-free media with simvastatin 0.04 μM, […]), the “Cholesterol-free media + simvastatin (0.04 μM)” value worked out at 0.9061. For the same molecule, in experiment [2] (NCI-H292 cells, complete media, […]), the “Complete Media” value worked out at 0.9946.
With `COc1cc(Nc2c(C#N)cnc3cc(OCCCN4CCN(C)CC4)c(OC)cc23)c(Cl)cc1Cl` [Bosutinib], the Difference in experiment [1] (setting [3]) amounted to 0.05; in experiment [2] (setting [17]), 0.07. In experiment [1] (NCI-H292 cells, cholesterol-free media without statin, FDA drug library screen), this molecule registered a Cholesterol-free of 0.4091. For the same molecule, the Complete in experiment [1] (NCI-H292 cells, complete media, FDA drug library screen) is recorded as 0.4542. For the same molecule, the “Cholesterol-free media + simvastatin (0.04 μM)” value in experiment [2] (setting [16]) came to 0.2873. Also, in experiment [2] (setting [20]), the “Complete Media” value was 0.3524.
As to `CN(CCOc1ccc(NS(C)(=O)=O)cc1)CCc1ccc(NS(C)(=O)=O)cc1` [Dofetilide], the Difference is on record as −0.48 in experiment [1] (setting [21]) and 0.16 in experiment [2] (setting [17]). For the same molecule, the Cholesterol-free in experiment [1] (setting [22]) is 1.275. In addition, the Complete in experiment [1] (setting [23]) worked out at 0.7972. For the same molecule, the “Cholesterol-free media + simvastatin (0.04 μM)” value in experiment [2] (setting [24]) was 0.6812. The “Complete Media” value in experiment [2] (setting [13]) is 0.8394.
Turning to `NC(=O)C[C@H](N)C(=O)O` [L-Asparagine], the Difference in experiment [1] (setting [3]) was −0.27; in experiment [2] (setting [17]), 0.05. In experiment [1] (setting [4]), this molecule registered a Cholesterol-free of 1.71. In addition, the Complete in experiment [1] (NCI-H292 cells, complete media) stood at 1.437. Besides, the “Cholesterol-free media + simvastatin (0.04 μM)” value in experiment [2] (setting [16]) was determined as 0.6588. Also, in experiment [2] (setting [20]), the “Complete Media” value is listed as 0.704.
Turning to `O=C(O)CCNC(=O)c1ccc(/N=N/c2ccc(O)c(C(=O)O)c2)cc1` [Balsalazide], the Cholesterol-free in experiment [1] (setting [4]) worked out at 1.245. This molecule also showed a Complete in experiment [1] (NCI-H292 cells, complete media) of 0.9198. Besides, the values for the Difference in experiment [1] (setting [25]) and in experiment [2] (setting [17]) were −0.33 and 0.04, respectively. The “Cholesterol-free media + simvastatin (0.04 μM)” value in experiment [2] (setting [16]) was found to be 1.228. Further, the “Complete Media” value in experiment [2] (setting [20]) amounted to 1.264.
In the case of Lefamulin (acetate), the Difference in experiment [1] (setting [18]) is −0.23; in experiment [2] (setting [19]) it was 0.15. This molecule yielded a Cholesterol-free in experiment [1] (setting [4]) of 1.096. Moreover, the Complete in experiment [1] (NCI-H292 cells, complete media) is recorded as 0.8619. Also, in experiment [2] (setting [24]), the “Cholesterol-free media + simvastatin (0.04 μM)” value was determined as 1.429. In addition, the “Complete Media” value in experiment [2] (setting [13]) is given as 1.575.
For Colistin (sulfate), the Difference is given as 0.08 in experiment [1] (setting [26]) and −0.21 in experiment [2] (setting [27]). Moreover, in experiment [2] (setting [5]), the “Cholesterol-free media + simvastatin (0.04 μM)” value came out at 1.189. Further, in experiment [2] (setting [6]), the “Complete Media” value was found to be 0.9801.
As to `N#Cc1ccc([C@H]2CCc3cncn32)c(F)c1` [Osilodrostat], the Difference in experiment [1] (setting [21]) was −0.71; in experiment [2] (setting [7]), −0.11. Further, the Cholesterol-free in experiment [1] (setting [22]) worked out at 1.647. In experiment [1] (setting [23]), this molecule showed a Complete of 0.935. For the same molecule, the “Cholesterol-free media + simvastatin (0.04 μM)” value in experiment [2] (setting [24]) stood at 1.26.
`CC(=O)O[C@]1(C(C)=O)CC[C@H]2[C@@H]3CCC4=CC(=O)CCC4=C3[C@@H](c3ccc(N(C)C)cc3)C[C@@]21C` [Ulipristal acetate] had a Cholesterol-free in experiment [1] (setting [4]) of 1.13. The molecule further registered a Complete in experiment [1] (NCI-H292 cells, complete media) of 0.8186. Also, the Difference was −0.31 in experiment [1] (setting [25]) and 0.00 in experiment [2] (setting [10]). Also, the “Cholesterol-free media + simvastatin (0.04 μM)” value in experiment [2] (setting [8]) is given as 0.6984. The “Complete Media” value in experiment [2] (setting [9]) was 0.695.
For Primaquine (Diphosphate), in experiment [1], the Cholesterol-free turned out to be 1.192, the Complete was 0.8514 and the Difference was −0.34. In experiment [2], the “Cholesterol-free media + simvastatin (0.04 μM)” value is 1.421, the “Complete Media” value turned out to be 1.652 and the Difference is 0.23.
Regarding Gluconate (Calcium), the Difference is recorded as −0.74 in experiment [1] (setting [18]) and −0.33 in experiment [2] (setting [27]). In experiment [1] (setting [23]), this molecule came in with a Complete of 0.8786. The “Cholesterol-free media + simvastatin (0.04 μM)” value in experiment [2] (setting [14]) turned out to be 1.134. Also, in experiment [2] (setting [15]), the “Complete Media” value amounted to 0.8004.
In experiment [1] (setting [4]), Kanamycin (sulfate) showed a Cholesterol-free of 1.851. This molecule gave a Complete in experiment [1] (NCI-H292 cells, complete media) of 1.486. Also, the Difference in experiment [1] (setting [26]) was −0.36; in experiment [2] (setting [27]), −0.12. Moreover, in experiment [2] (setting [24]), the “Cholesterol-free media + simvastatin (0.04 μM)” value was found to be 1.825. For the same molecule, in experiment [2] (setting [13]), the “Complete Media” value is listed as 1.703.
`CCO.C[C@H]1c2cccc(O)c2C(O)=C2C(=O)[C@]3(O)C(O)=C(C(N)=O)C(=O)[C@@H](N(C)C)[C@@H]3[C@@H](O)[C@@H]21.C[C@H]1c2cccc(O)c2C(O)=C2C(=O)[C@]3(O)C(O)=C(C(N)=O)C(=O)[C@@H](N(C)C)[C@@H]3[C@@H](O)[C@@H]21.Cl.Cl.O` [Doxycycline (hyclate)]: the Difference is given as −0.15 in experiment [1] (setting [11]) and −0.19 in experiment [2] (setting [7]). Also, in experiment [1] (setting [12]), the Cholesterol-free is reported as 1.09. Besides, the Complete in experiment [1] (setting [13]) amounted to 0.9355. Further, the “Cholesterol-free media + simvastatin (0.04 μM)” value in experiment [2] (setting [5]) turned out to be 1.074. Further, the “Complete Media” value in experiment [2] (setting [6]) is on record as 0.8852.
